Assay results: patent US11180462B2, “Microbiocidal oxadiazole derivatives” (SYNGENTA PARTICIPATIONS AG, priority 2015, dated 2021)

Key:
[1] = tested on: Puccinia recondita f. Sp. Tritici; assay: Fungicidal activity against Puccinia recondita f. sp. tritici / wheat / leaf disc preventative (brown rust); format: in vivo; conditions: foliar, 200 ppm in the applied formulation, wheat leaf segments, preventative, compared to untreated control leaf disks, read-out: disease control
How it was run: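 Preventative leaf-segment test, wheat cv. Kanzler on water agar. Spray compound at 200 ppm, inoculate with spores 1 day later; 19° C., 75% rh, 12/12 h light. Read-out: % disease control vs untreated, 7 to 9 days after application.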

[2] = tested on: Puccinia recondita f. Sp. Tritici; assay: Fungicidal activity against Puccinia recondita f. sp. tritici / wheat / leaf disc curative (brown rust); format: in vivo; conditions: foliar, 24 h, 200 ppm in the applied formulation, wheat leaf segments, curative (applied 1 day after inoculation), compared to untreated control leaf disks, read-out: disease control
How it was run: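 Curative leaf-segment test: compound diluted in water applied 1 day after spore inoculation of cv. Kanzler wheat segments on agar. Conditions 19° C, 75% RH, 12 h/12 h light cycle. Read-out: % disease control relative to untreated check, 6 to 8 days after application.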

Phakopsora Pachyrhizi = assay: Fungicidal activity against Phakopsora pachyrhizi / soybean / leaf disc preventative (Asian soybean rust); format: in vivo; conditions: foliar, 200 ppm in the applied formulation, soybean leaf disks, compared to untreated control leaf disks, read-out: disease control
How it was run: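 Preventative soybean leaf-disc test: discs on water agar sprayed with diluted formulated compound, inoculated one day later with spores on the lower surface. Held 24–36 h dark at 20°C, 75% rh, then 12 h light/day; percent disease control versus untreated discs scored 12–14 days after application.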

[3] = tested on: Glomerella lagenarium (Colletotrichum lagenarium); assay: Fungicidal activity against Glomerella lagenarium (Colletotrichum lagenarium) liquid culture / cucumber / preventative (anthracnose); format: cell-based; conditions: Colletotrichum orbiculare; 20 ppm in the applied formulation; liquid culture (PDB), growth inhibition measured photometrically after 3 to 4 days; compared to untreated control; read-out: disease control
How it was run: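 Photometric read-out of fungal growth after 2–7 days, expressed as percent antifungal activity versus untreated check. Cryo-stored conidia in PDB; compound at 20 ppm; dark, 24 °C, 96% RH.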

COCCN(Cc1ccc(-c2noc(C(F)(F)F)n2)cc1)C(=O)C1CC1F (centres unmarked) [Compound 1.358, 2-fluoro-N-(2-methoxyethyl)-N-[[4-[5-(trifIuoromethyl)-1,2,4-oxadiazol-3-yl]phenyl]methyl]-cyclopropane-carboxamide]
≥ 80%: pest or weed control at 200 ppm [1] | pest or weed control at 200 ppm [2] | pest or weed control at 200 ppm (Phakopsora Pachyrhizi) | inhibition of growth at 20 ppm [3]

CCC(COC)C(=O)N(Cc1ccc(-c2noc(C(F)(F)F)n2)cc1)OC (centres unmarked) [Compound 1.57, N-methoxy-2-(methoxymethyl)-N-[[4-[5-(trifluoromethyl)-1,2,4-oxadiazol-3-yl]phenyl]methyl]-butanamide]
≥ 80%: pest or weed control at 200 ppm [1] | pest or weed control at 200 ppm [2] | pest or weed control at 200 ppm (Phakopsora Pachyrhizi) | inhibition of growth at 20 ppm [3]

C#CCN(Cc1ccc(-c2noc(C(F)(F)F)n2)cc1)C(=O)CCC=C [Compound 1.159, N-prop-2-ynyl-N-[[4-[5-(trifluoromethyl)-1,2,4-oxadiazol-3-yl]phenyl]methyl]-pent-4-enamide]
≥ 80%: pest or weed control at 200 ppm [1] | pest or weed control at 200 ppm [2] | pest or weed control at 200 ppm (Phakopsora Pachyrhizi) | inhibition of growth at 20 ppm [3]

C#CCN(Cc1ccc(-c2noc(C(F)(F)F)n2)cc1)C(=O)C1(C)COC1 [Compound 1.192, 3-methyl-N-prop-2-ynyl-N-[[4-[5-(trifluoromethyl)-1,2,4-oxadiazol-3-yl]phenyl]methyl]-oxetane-3-carboxamide]
≥ 80%: pest or weed control at 200 ppm [1] | pest or weed control at 200 ppm [2] | pest or weed control at 200 ppm (Phakopsora Pachyrhizi) | inhibition of growth at 20 ppm [3]

CC(C)C(=O)N(Cc1ccc(-c2noc(C(F)(F)F)n2)cc1)CC(F)(F)F [Compound 1.689, 2-methyl-N-(2,2,2-trifluoroethyl)-N-[[4-[5-(trifluoromethyl)-1,2,4-oxadiazol-3-yl]phenyl]methyl]-propanamide]
≥ 80%: pest or weed control at 200 ppm [1] | pest or weed control at 200 ppm [2] | pest or weed control at 200 ppm (Phakopsora Pachyrhizi) | inhibition of growth at 20 ppm [3]

CC1(C(=O)N(Cc2ccc(-c3noc(C(F)(F)F)n3)cc2)C2CC2)COC1 [Compound 1.128, N-cyclopropyl-3-methyl-N-[[4-[5-(trifluoromethyl)-1,2,4-oxadiazol-3-yl]phenyl]methyl]-oxetane-3-carboxamide]
≥ 80%: pest or weed control at 200 ppm [1] | pest or weed control at 200 ppm [2] | pest or weed control at 200 ppm (Phakopsora Pachyrhizi) | inhibition of growth at 20 ppm [3]

CC(C)N(Cc1ccc(-c2noc(C(F)(F)F)n2)cc1)C(=O)C1(C)COC1 [Compound 1.679, N-isopropyl-3-methyl-N-[[4-[5-(trifluoromethyl)-1,2,4-oxadiazol-3-yl]phenyl]methyl]-oxetane-3-carboxamide]
≥ 80%: pest or weed control at 200 ppm [1] | pest or weed control at 200 ppm [2] | pest or weed control at 200 ppm (Phakopsora Pachyrhizi) | inhibition of growth at 20 ppm [3]

C#CCN(Cc1ccc(-c2noc(C(F)(F)F)n2)cc1)C(=O)C1(C)CC1 [Compound 1.183, 1-methyl-N-prop-2-ynyl-N-[[4-[5-(trifluoromethyl)-1,2,4-oxadiazol-3-yl]phenyl]methyl]-cyclopropane-carboxamide]
≥ 80%: pest or weed control at 200 ppm [1] | pest or weed control at 200 ppm [2] | pest or weed control at 200 ppm (Phakopsora Pachyrhizi) | inhibition of growth at 20 ppm [3]

COCCN(Cc1ccc(-c2noc(C(F)(F)F)n2)cc1)C(=O)C(C)C [Compound 1.325, N-(2-methoxyethyl)-2-methyl-N-[[4-[5-(trifluoromethyl)-1,2,4-oxadiazol-3-yl]phenyl]methyl]-propanamide]
≥ 80%: pest or weed control at 200 ppm [1] | pest or weed control at 200 ppm [2] | pest or weed control at 200 ppm (Phakopsora Pachyrhizi) | inhibition of growth at 20 ppm [3]

CON(Cc1ccc(-c2noc(C(F)(F)F)n2)cc1)C(=O)NC1CCCC1 [Compound 3.23, 3-cyclopentyl-1-methoxy-1-[[4-[5-(trifluoromethyl)-1,2,4-oxadiazol-3-yl]phenyl]methyl]urea]
≥ 80%: pest or weed control at 200 ppm [1] | pest or weed control at 200 ppm [2] | pest or weed control at 200 ppm (Phakopsora Pachyrhizi) | inhibition of growth at 20 ppm [3]

CON(Cc1ccc(-c2noc(C(F)(F)F)n2)cc1)C(=O)NCC(C)C [Compound 3.13, 3-isobutyl-1-methoxy-1-[[4-[5-(trifluoromethyl)-1,2,4-oxadiazol-3-yl]phenyl]methyl]urea]
≥ 80%: pest or weed control at 200 ppm [1] | pest or weed control at 200 ppm [2] | pest or weed control at 200 ppm (Phakopsora Pachyrhizi) | inhibition of growth at 20 ppm [3]

CCCOC(=O)N(Cc1ccc(-c2noc(C(F)(F)F)n2)cc1)OC [Compound 2.4, propyl N-methoxy-N-[[4-[5-(trifluoromethyl)-1,2,4-oxadiazol-3-yl]phenyl]methyl]-carbamate]
≥ 80%: pest or weed control at 200 ppm [1] | pest or weed control at 200 ppm [2] | pest or weed control at 200 ppm (Phakopsora Pachyrhizi) | inhibition of growth at 20 ppm [3]

CCON(Cc1ccc(-c2noc(C(F)(F)F)n2)cc1)C(=O)C1CC1(F)F (centres unmarked) [Compound 1.615, N-ethoxy-2,2-difluoro-N-[[4-[5-(trifluoromethyl)-1,2,4-oxadiazol-3-yl]phenyl]methyl]-cyclopropane-carboxamide]
≥ 80%: pest or weed control at 200 ppm [1] | pest or weed control at 200 ppm [2] | pest or weed control at 200 ppm (Phakopsora Pachyrhizi) | inhibition of growth at 20 ppm [3]

CON(Cc1ccc(-c2noc(C(F)(F)F)n2)cc1)C(=O)NCc1ccco1 [Compound 3.24, 3-(2-furylmethyl)-1-methoxy-1-[[4-[5-(trifluoromethyl)-1,2,4-oxadiazol-3-yl]phenyl]methyl]urea]
≥ 80%: pest or weed control at 200 ppm [1] | pest or weed control at 200 ppm [2] | pest or weed control at 200 ppm (Phakopsora Pachyrhizi) | inhibition of growth at 20 ppm [3]

CON(C(=O)C1CCCO1)C(C)c1ccc(-c2noc(C(F)(F)F)n2)cc1 (centres unmarked) [Compound 1.273, N-methoxy-N-[1-[4-[5-(trifluoromethyl)-1,2,4-oxadiazol-3-yl]phenyl]ethyl]-tetrahydrofuran-2-carboxamide]
≥ 80%: pest or weed control at 200 ppm [1] | pest or weed control at 200 ppm [2] | pest or weed control at 200 ppm (Phakopsora Pachyrhizi) | inhibition of growth at 20 ppm [3]

COCCCC(=O)N(C)Cc1ccc(-c2noc(C(F)(F)F)n2)cc1 [Compound 1.526, 4-methoxy-N-methyl-N-[[4-[5-(trifluoromethyl)-1,2,4-oxadiazol-3-yl]phenyl]methyl]-butanamide]
≥ 80%: pest or weed control at 200 ppm [1] | pest or weed control at 200 ppm [2] | pest or weed control at 200 ppm (Phakopsora Pachyrhizi) | inhibition of growth at 20 ppm [3]

CCC(COC)C(=O)N(Cc1ccc(-c2noc(C(F)(F)F)n2)cc1)C1CC1 (centres unmarked) [Compound 1.134, N-cyclopropyl-2-(methoxymethyl)-N-[[4-[5-(trifluoromethyl)-1,2,4-oxadiazol-3-yl]phenyl]methyl]-butanamide]
≥ 80%: pest or weed control at 200 ppm [1] | pest or weed control at 200 ppm [2] | pest or weed control at 200 ppm (Phakopsora Pachyrhizi) | inhibition of growth at 20 ppm [3]

C=CCN(Cc1ccc(-c2noc(C(F)(F)F)n2)cc1)C(=O)C1OCCO1 [Compound 1.493, N-allyl-N-[[4-[5-(trifluoromethyl)-1,2,4-oxadiazol-3-yl]phenyl]methyl]-1,3-dioxolane-2-carboxamide]
≥ 80%: pest or weed control at 200 ppm [1] | pest or weed control at 200 ppm [2] | pest or weed control at 200 ppm (Phakopsora Pachyrhizi) | inhibition of growth at 20 ppm [3]

CON(Cc1ccc(-c2noc(C(F)(F)F)n2)cc1)C(=O)C(C)O (centres unmarked) [Compound 1.786, 2-hydroxy-N-methoxy-N-[[4-[5-(trifluoromethyl)-1,2,4-oxadiazol-3-yl]phenyl]methyl]-propanamide]
≥ 80%: pest or weed control at 200 ppm [1] | pest or weed control at 200 ppm [2] | pest or weed control at 200 ppm (Phakopsora Pachyrhizi) | inhibition of growth at 20 ppm [3]

N#CCC(=O)N(Cc1ccc(-c2noc(C(F)(F)F)n2)cc1)CC(F)(F)F [Compound 1.701, 2-cyano-N-(2,2,2-trifluoroethyl)-N-[[4-[5-(trifluoromethyl)-1,2,4-oxadiazol-3-yl]phenyl]methyl]-acetamide]
≥ 80%: pest or weed control at 200 ppm [1] | pest or weed control at 200 ppm [2] | pest or weed control at 200 ppm (Phakopsora Pachyrhizi) | inhibition of growth at 20 ppm [3]
